Test results as given in patent US11986532B2 (Arvinas Operations, Inc., priority 2021, dated 2024).

Target: T1, BCL6 (Homo sapiens, UniProt P41182)
T1 construct: endogenous in cells; host or cells: T47D breast cancer epithelial cells
Assay: Immunofluorescence protocol for high content imaging of BCL6 (degradation) in T47D cells, 3 days compound treatment
Type: cell-based
Conditions: for Dmax: T47D, read-out: Mean Dmax (%)** category; for DC50: read-out: Mean DC50 (nM)* category
Outline: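 High content immunofluorescence imaging (10×, 4 fields/well) of BCL6 using rabbit primary antibody, Alexa-488 secondary, cell mask and Hoechst nuclear stain after PFA fixation. Before staining, T47D cells (7K/well) were exposed for 3 days at 37° C to 3-fold serial dilutions of compound, top final concentration 0.1 or 1 μM.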

| Compound | Dmax [%] | DC50 [nM] | Mean Dmax (%)** category |
| --- | --- | --- | --- |
| CNC(=O)COc1cc2cc(Nc3nc(N4CCC(O[C@H]5C[C@H](N6CCC7(CCN(c8ccc9c(c8)C(=O)N(C8CCC(=O)NC8=O)C9=O)CC7)C6)C5)CC4)ncc3Cl)ccc2n(C(C)C)c1=O (stereo partly shown) [Compound 362, 2-({6-[(5-chloro-2-{4-[(1r,3r)-3-{8-[2-(2,6-dioxopiperidin-3-yl)-1,3-dioxo-2,3-dihydro-1H-isoindol-5-yl]-2,8-diazaspiro [4.5]decan-2-yl}cyclobutoxy]piperidin-1-yl}pyrimidin-4-yl)amino]-2-oxo-1-(propan-2-yl)-1,2-dihydroquinolin-3-yl}oxy)-N-methylacetamide] | ≥ 70 | 10 to 50 | – |
| CNC(=O)COc1cc2cc(Nc3nc(N4CCC(O[C@H]5C[C@H](N6CCC7(CCN(c8ccc9c(c8)CN(C8CCC(=O)NC8=O)C9=O)CC7)C6)C5)CC4)ncc3Cl)ccc2n(C(C)C)c1=O (stereo partly shown) [Compound 363, 2-({6-[(5-chloro-2-{4-[(1r,3r)-3-{8-[2-(2,6-dioxopiperidin-3-yl)-1-oxo-2,3-dihydro-1H-isoindol-5-yl]-2,8-diazaspiro[4.5]decan-2-yl}cyclobutoxy]piperidin-1-yl}pyrimidin-4-yl)amino]-2-oxo-1-(propan-2-yl)-1,2-dihydroquinolin-3-yl}oxy)-N-methylacetamide] | – | < 10 | A (A >= 70) |
| CNC(=O)COc1cc2cc(Nc3nc(N4CCC(O[C@H]5C[C@H](N6CC7(CCN(c8ccc9c(c8)C(=O)N(C8CCC(=O)NC8=O)C9=O)CC7)C6)C5)CC4)ncc3Cl)ccc2n(C(C)C)c1=O (stereo partly shown) [Compound 365, 2-({6-[(5-chloro-2-{4-[(1r,3r)-3-{7-[2-(2,6-dioxopiperidin-3-yl)-1,3-dioxo-2,3-dihydro-1H-isoindol-5-yl]-2,7-diazaspiro [3.5]nonan-2-yl}cyclobutoxy]piperidin-1-yl}pyrimidin-4-yl)amino]-2-oxo-1-(propan-2-yl)-1,2-dihydroquinolin-3-yl}oxy)-N-methylacetamide] | 50 to 70 | < 10 | – |
| CNC(=O)COc1cc2cc(Nc3nc(N4CCC(O[C@H]5C[C@H](N6CCC7(CC6)CN(c6ccc8c(c6)CN(C6CCC(=O)NC6=O)C8=O)C7)C5)CC4)ncc3Cl)ccc2n(C(C)C)c1=O (stereo partly shown) [Compound 366, 2-({6-[(5-chloro-2-{4-[(1r,3r)-3-{2-[2-(2,6-dioxopiperidin-3-yl)-1-oxo-2,3-dihydro-1H-isoindol-5-yl]-2,7-diazaspiro [3.5]nonan-7-yl}cyclobutoxy]piperidin-1-yl}pyrimidin-4-yl)amino]-2-oxo-1-(propan-2-yl)-1,2-dihydroquinolin-3-yl}oxy)-N-methylacetamide] | ≥ 70 | < 10 | – |
| CNC(=O)COc1cc2cc(Nc3nc(N4CCC(O[C@H]5C[C@H](N6CCN(c7ccc8c(c7)C(=O)N(C7CCC(=O)NC7=O)C8=O)C(C)(C)C6)C5)CC4)ncc3Cl)ccc2n(C(C)C)c1=O (stereo partly shown) [Compound 367, 2-({6-[(5-chloro-2-{4-[(1r,3r)-3-{4-[2-(2,6-dioxopiperidin-3-yl)-1,3-dioxo-2,3-dihydro-1H-isoindol-5-yl]-3,3-dimethylpiperazin-1-yl}cyclobutoxy]piperidin-1-yl}pyrimidin-4-yl)amino]-2-oxo-1-(propan-2-yl)-1,2-dihydroquinolin-3-yl}oxy)-N-methylacetamide] | ≥ 70 | 10 to 50 | – |
| CNC(=O)COc1cc2cc(Nc3nc(N4CCC(O[C@H]5C[C@H](N6CC7(CCN(c8ccc9c(c8)CN(C8CCC(=O)NC8=O)C9=O)CC7)C6)C5)CC4)ncc3Cl)ccc2n(C(C)C)c1=O (stereo partly shown) [Compound 369, 2-({6-[(5-chloro-2-{4-[(1r,3r)-3-{7-[2-(2,6-dioxopiperidin-3-yl)-1-oxo-2,3-dihydro-1H-isoindol-5-yl]-2,7-diazaspiro[3.5]nonan-2-yl}cyclobutoxy]piperidin-1-yl}pyrimidin-4-yl)amino]-2-oxo-1-(propan-2-yl)-1,2-dihydroquinolin-3-yl}oxy)-N-methylacetamide] | ≥ 70 | < 10 | – |
| CNC(=O)COc1cc2cc(Nc3nc(N4CCC(O[C@H]5C[C@H](N6CC7CCC(C6)N7c6ccc7c(c6)C(=O)N(C6CCC(=O)NC6=O)C7=O)C5)CC4)ncc3Cl)ccc2n(C(C)C)c1=O (stereo partly shown) [Compound 370, 2-({6-[(5-chloro-2-{4-[(1r,3r)-3-{8-[2-(2,6-dioxopiperidin-3-yl)-1,3-dioxo-2,3-dihydro-1H-isoindol-5-yl]-3,8-diazabicyclo[3.2.1]octan-3-yl}cyclobutoxy]piperidin-1-yl}pyrimidin-4-yl)amino]-2-oxo-1-(propan-2-yl)-1,2-dihydroquinolin-3-yl}oxy)-N-methylacetamide] | < 50 | 10 to 50 | – |
| CNC(=O)COc1cc2cc(Nc3nc(N4CCC(O[C@H]5C[C@H](N6CC7CCC(C6)N7c6ccc7c(c6)CN(C6CCC(=O)NC6=O)C7=O)C5)CC4)ncc3Cl)ccc2n(C(C)C)c1=O (stereo partly shown) [Compound 371, 2-({6-[(5-chloro-2-{4-[(1r,3r)-3-{8-[2-(2,6-dioxopiperidin-3-yl)-1-oxo-2,3-dihydro-1H-isoindol-5-yl]-3,8-diazabicyclo[3.2.1]octan-3-yl}cyclobutoxy]piperidin-1-yl}pyrimidin-4-yl)amino]-2-oxo-1-(propan-2-yl)-1,2-dihydroquinolin-3-yl}oxy)-N-methylacetamide] | < 50 | < 10 | – |
| CNC(=O)COc1cc2cc(Nc3nc(N4CCC(O[C@H]5C[C@H](N6C7CCC6CN(c6ccc8c(c6)C(=O)N(C6CCC(=O)NC6=O)C8=O)C7)C5)CC4)ncc3Cl)ccc2n(C(C)C)c1=O (stereo partly shown) [Compound 372, 2-({6-[(5-chloro-2-{4-[(1r,3r)-3-{3-[2-(2,6-dioxopiperidin-3-yl)-1,3-dioxo-2,3-dihydro-1H-isoindol-5-yl]-3,8-diazabicyclo[3.2.1]octan-8-yl}cyclobutoxy]piperidin-1-yl}pyrimidin-4-yl)amino]-2-oxo-1-(propan-2-yl)-1,2-dihydroquinolin-3-yl}oxy)-N-methylacetamide] | 50 to 70 | < 10 | – |
| CNC(=O)COc1cc2cc(Nc3nc(N4CCC(CN5CCC6(CC5)CC5(CN(c7ccc8c(c7)C(=O)N(C7CCC(=O)NC7=O)C8=O)C5)C6)CC4)ncc3Cl)ccc2n(C(C)C)c1=O (stereo not shown) [Compound 373, 2-{[6-({5-chloro-2-[4-({2-[2-(2,6-dioxopiperidin-3-yl)-1,3-dioxo-2,3-dihydro-1H-isoindol-5-yl]-2,9-diazadispiro[3.1.5^6.1^4]dodecan-9-yl}methyl)piperidin-1-yl]pyrimidin-4-yl}amino)-2-oxo-1-(propan-2-yl)-1,2-dihydroquinolin-3-yl]oxy}-N-methylacetamide] | ≥ 70 | < 10 | – |
| CNC(=O)COc1cc2cc(Nc3nc(N4CCC(CN5CCC6(CC5)CC5(CN(c7cccc8c7C(=O)N(C7CCC(=O)NC7=O)C8=O)C5)C6)CC4)ncc3Cl)ccc2n(C(C)C)c1=O (stereo not shown) [Compound 374, 2-{[6-({5-chloro-2-[4-({2-[2-(2,6-dioxopiperidin-3-yl)-1,3-dioxo-2,3-dihydro-1H-isoindol-4-yl]-2,9-diazadispiro[3.1.5^6.1^4]dodecan-9-yl}methyl)piperidin-1-yl]pyrimidin-4-yl}amino)-2-oxo-1-(propan-2-yl)-1,2-dihydroquinolin-3-yl]oxy}-N-methylacetamide] | ≥ 70 | < 10 | – |
